In experiment [1] the target is T1, Serine/threonine-protein kinase greatwall (Homo sapiens) (UniProt Q96GX5).
T1 sequence (whole entry): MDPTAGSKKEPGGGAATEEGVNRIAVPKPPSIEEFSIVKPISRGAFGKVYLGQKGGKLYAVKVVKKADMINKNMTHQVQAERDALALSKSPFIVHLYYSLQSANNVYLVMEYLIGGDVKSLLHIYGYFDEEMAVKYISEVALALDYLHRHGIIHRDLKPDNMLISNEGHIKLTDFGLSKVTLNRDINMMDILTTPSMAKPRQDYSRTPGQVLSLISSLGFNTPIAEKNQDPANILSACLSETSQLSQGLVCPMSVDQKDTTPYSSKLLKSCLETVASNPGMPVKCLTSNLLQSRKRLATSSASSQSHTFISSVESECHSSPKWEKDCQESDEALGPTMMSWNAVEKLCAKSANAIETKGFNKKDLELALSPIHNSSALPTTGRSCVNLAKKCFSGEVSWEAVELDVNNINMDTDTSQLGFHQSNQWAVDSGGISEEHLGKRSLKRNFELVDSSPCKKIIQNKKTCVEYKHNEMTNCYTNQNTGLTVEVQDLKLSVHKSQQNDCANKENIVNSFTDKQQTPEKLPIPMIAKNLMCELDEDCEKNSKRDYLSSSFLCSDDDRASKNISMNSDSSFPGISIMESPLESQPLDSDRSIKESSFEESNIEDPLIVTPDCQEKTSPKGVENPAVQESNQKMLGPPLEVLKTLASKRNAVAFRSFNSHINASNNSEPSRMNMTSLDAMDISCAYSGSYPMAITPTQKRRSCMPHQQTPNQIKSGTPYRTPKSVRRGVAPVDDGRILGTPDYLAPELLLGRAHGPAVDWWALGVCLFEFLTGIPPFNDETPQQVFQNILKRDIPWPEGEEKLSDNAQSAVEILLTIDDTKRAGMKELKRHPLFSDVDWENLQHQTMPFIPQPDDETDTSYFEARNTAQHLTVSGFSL
As to the kind of experiment: Selectivity interaction (ActivX KiNativ screen (kinase selectivity in THP-1 cell lysates)) EUB0000639a MASTL. As to conditions: lysate, at 0.04 µM. Type of experiment: subcellular.

Experiment [2] addresses T2, Ephrin type-B receptor 2 (Homo sapiens) (UniProt P29323).
T2 sequence (whole entry): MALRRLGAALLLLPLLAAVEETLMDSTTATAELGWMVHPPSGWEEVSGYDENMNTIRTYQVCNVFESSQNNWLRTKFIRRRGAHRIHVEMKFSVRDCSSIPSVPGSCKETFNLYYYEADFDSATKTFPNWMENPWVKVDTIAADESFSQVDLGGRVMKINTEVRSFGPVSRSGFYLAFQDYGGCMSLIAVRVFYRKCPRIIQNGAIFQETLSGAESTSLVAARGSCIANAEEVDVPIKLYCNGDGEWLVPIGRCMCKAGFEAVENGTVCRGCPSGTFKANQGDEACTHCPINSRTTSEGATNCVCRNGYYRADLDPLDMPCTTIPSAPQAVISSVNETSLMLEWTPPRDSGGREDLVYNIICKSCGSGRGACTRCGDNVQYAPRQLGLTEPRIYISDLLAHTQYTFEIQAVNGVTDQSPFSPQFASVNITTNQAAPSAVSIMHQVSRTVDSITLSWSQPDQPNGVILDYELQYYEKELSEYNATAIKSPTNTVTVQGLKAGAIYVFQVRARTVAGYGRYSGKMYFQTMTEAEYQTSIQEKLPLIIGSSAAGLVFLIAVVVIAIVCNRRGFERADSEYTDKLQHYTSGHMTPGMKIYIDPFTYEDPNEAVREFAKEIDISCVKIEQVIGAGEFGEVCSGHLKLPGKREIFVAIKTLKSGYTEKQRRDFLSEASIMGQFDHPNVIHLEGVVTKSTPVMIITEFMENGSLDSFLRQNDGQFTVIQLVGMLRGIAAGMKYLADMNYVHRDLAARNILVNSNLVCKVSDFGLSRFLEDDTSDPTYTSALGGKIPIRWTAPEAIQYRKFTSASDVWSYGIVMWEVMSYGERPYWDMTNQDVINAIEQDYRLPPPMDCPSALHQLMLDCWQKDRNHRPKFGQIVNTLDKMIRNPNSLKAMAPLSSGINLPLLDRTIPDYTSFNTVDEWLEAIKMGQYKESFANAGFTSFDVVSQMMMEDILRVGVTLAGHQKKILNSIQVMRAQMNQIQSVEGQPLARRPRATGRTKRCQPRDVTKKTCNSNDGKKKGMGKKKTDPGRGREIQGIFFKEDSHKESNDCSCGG
Nature of the experiment: Selectivity interaction (ProQinase) EUB0000171b EPHB2.

In experiment [3] the target is T3, Tyrosine-protein kinase JAK3 (Homo sapiens) (UniProt P52333).
T3 sequence (whole entry): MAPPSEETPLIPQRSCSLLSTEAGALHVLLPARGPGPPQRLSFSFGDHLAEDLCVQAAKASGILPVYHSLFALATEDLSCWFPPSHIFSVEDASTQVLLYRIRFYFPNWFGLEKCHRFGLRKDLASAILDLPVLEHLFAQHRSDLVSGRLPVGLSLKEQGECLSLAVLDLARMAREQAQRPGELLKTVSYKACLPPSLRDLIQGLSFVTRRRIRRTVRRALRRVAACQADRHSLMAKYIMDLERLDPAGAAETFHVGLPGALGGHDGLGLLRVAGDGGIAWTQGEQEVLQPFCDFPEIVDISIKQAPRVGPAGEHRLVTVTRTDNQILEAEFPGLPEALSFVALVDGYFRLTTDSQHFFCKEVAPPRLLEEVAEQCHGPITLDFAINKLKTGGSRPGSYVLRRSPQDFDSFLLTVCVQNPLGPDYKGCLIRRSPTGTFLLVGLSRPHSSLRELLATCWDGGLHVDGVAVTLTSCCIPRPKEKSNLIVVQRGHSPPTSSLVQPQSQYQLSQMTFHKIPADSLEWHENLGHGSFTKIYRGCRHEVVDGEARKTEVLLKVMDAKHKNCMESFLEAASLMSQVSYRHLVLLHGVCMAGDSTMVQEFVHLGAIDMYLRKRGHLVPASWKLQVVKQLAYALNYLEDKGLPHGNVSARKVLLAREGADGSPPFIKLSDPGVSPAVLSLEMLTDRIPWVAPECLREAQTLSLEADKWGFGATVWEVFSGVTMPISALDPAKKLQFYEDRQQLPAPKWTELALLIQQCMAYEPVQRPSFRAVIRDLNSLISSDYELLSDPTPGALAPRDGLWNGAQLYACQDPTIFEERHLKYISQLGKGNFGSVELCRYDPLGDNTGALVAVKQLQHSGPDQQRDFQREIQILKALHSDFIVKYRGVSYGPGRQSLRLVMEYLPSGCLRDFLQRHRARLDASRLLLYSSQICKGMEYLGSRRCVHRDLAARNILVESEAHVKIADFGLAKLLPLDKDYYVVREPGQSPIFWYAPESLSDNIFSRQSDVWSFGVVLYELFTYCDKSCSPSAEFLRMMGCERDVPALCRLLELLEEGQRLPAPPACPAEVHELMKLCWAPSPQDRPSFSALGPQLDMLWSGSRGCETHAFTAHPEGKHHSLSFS
Nature of the experiment: Selectivity interaction (Kinase panel (Carna Biosciences)) EUB0001542aTs JAK3. To be noted: at 1 µM.

In experiment [1], `CC[C@@H]1[C@H](F)C(=O)N[C@@H]1COc1nccc2cc(C(N)=O)c(OC)cc12` [ZIMLOVISERTIB] returned a % of inhibition of 3.9%. As to `C=CC(=O)Nc1cccc(C(=O)Nc2ccc(Nc3cc(-c4[nH]c(SC)nc4C)ccn3)cc2)c1`, the % of control in experiment [2] (at 1 µM) is 93%; in experiment [2] (at 5 µM), 78%. In the case of `Cn1cc(Nc2nccc(N3CC4CCC(C3)N4C(=O)[C@@H]3CC3(F)F)n2)cn1`, in experiment [3], the % of inhibition is 92%.

(Values after ChEMBL document CHEMBL5465560, “Selectivity Literature for EUbOPEN Chemogenomic Library” (2024).)
